{"source": "PubChem BioAssay AID1773", "about": "(Sanford-Burnham Center for Chemical Genomics, 2009)", "system": "MDA-MB-435 TRAIL potentiation, ATPlite cytotoxicity, 24 h", "experiment": "PubChem AID 1773", "conditions": "stronger effect = higher value"}
{"smiles": "CSc1nc(-c2ccc(C)cc2)nc(C(Cl)Cl)n1", "values": [{"measurement": "cytotoxicity", "setting": "at 5 µM", "result": 50, "unit": "%"}, {"measurement": "cytotoxicity with 30 ng/mL TRAIL", "setting": "at 5 µM", "result": 91, "unit": "%"}, {"measurement": "cytotoxicity", "setting": "compound 2.5 uM plus TRAIL 10, at 2.5 µM", "result": 84, "unit": "%"}, {"measurement": "cytotoxicity", "setting": "compound alone cytotoxicity, at 5 µM", "result": -1, "unit": "%"}, {"measurement": "cytotoxicity", "setting": "compound plus 100 ng/mL TRAIL, at 5 µM", "result": 83, "unit": "%"}]}
